{
  "source": "paper PMC11525786",
  "about": "“In silico and pharmacological evaluation of GPR65 as a cancer immunotherapy target regulating T-cell functions” (Frontiers in Immunology, 2024)",
  "biological_target": "T1, GPR65 (Homo sapiens, UniProt Q8IYL9)",
  "T1 construct": "GPR65 overexpressed in A375 cells (rCD2-GPR65 tandem lentivector)",
  "T1 sequence (Q8IYL9 whole entry)": "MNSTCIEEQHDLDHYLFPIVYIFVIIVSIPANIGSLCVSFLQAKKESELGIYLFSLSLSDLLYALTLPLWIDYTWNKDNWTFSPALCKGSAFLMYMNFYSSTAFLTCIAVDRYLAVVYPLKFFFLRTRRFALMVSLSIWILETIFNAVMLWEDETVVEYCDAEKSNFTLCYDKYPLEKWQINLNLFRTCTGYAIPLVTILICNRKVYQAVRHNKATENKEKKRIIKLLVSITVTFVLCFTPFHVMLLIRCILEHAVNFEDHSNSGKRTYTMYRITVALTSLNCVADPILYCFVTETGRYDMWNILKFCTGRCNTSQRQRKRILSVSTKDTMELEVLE",
  "test": "HTRF cAMP induction in GPR65-overexpressing A375 cells ([…] agonist, pH […]), blocked by GPR65 antagonists",
  "format": "cell-based",
  "data": [
    {"smiles": "CN1N=C(SCc2ccc(Cl)cc2Cl)Sc2c1cnn(C)c2=O", "note": "[BTB09089, 3-[(2,4-dichlorobenzyl)thio]-1,6-dimethyl-5,6-dihydro-1H-pyridazino [4,5-e][1,3,4]thiadiazin-5-one]", "values": [
      {"measurement": "HTRF cAMP induction in GPR65-overexpressing A375 cells (1 μM agonist, pH 7.5), b", "result": "capacity to inhibit cAMP biosynthesis upon GPR65 activation by BTB09089"}
    ]}
  ]
}
